Measured values as given in PubChem BioAssay (NCI).
Several values for one entry are separate records, joined by “and”; a condition that tells them apart may be missing. Identical values can stand only once.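 96-well plates; 48 h exposure; 5 concentrations. Endpoints by linear interpolation between flanking doses. Not reached: highest tested concentration assigned. GI50: concentration for 50% inhibition of growth. TGI is the concentration that stops growth completely.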

How the values were obtained:
Assay in all cases: NCI-60 cell line screen, 48 h
[1] = tested on: HL-60(TB) leukemia
[2] = tested on: SK-MEL-28 melanoma
[3] = tested on: UACC-257 melanoma
[4] = tested on: MDA-MB-231 breast
[5] = tested on: SNB-19 CNS
[6] = tested on: TK-10 renal
[7] = tested on: MCF7 breast
[8] = tested on: U251 CNS
[9] = tested on: OVCAR-5 ovarian
[10] = tested on: HOP-92 NSCLC
[11] = tested on: SF-539 CNS
[12] = tested on: KM12 colon
[13] = tested on: SW-620 colon
[14] = tested on: IGROV1 ovarian

`COc1cc(C(=O)N(C(=S)OC23CC4CC(CC(C4)C2)C3)c2ccccc2)cc(OC)c1OC` was tested, and the TGI [1] was 45.8 µM, the TGI [2] was greater than 100 µM and the TGI [3] was greater than 100 µM. It also gave a TGI [4] greater than 100 µM, a TGI [5] greater than 100 µM and a TGI [6] greater than 100 µM. It also gave a TGI [7] greater than 100 µM, a TGI [8] of 53 µM and a TGI [9] greater than 100 µM. It also gave a TGI [10] greater than 100 µM, a TGI [11] greater than 100 µM and a TGI [12] greater than 100 µM. For the same compound, the TGI [13] was greater than 100 µM.
Work on `COC(=O)C1SC[C@H]2C(=O)N(c3ccccc3)C(=O)N12` (some centres not stated) yielded a TGI [1] greater than 100 µM, a TGI [2] greater than 100 µM and a TGI [3] greater than 100 µM. For the same compound, the TGI [4] was greater than 100 µM, the TGI [5] was greater than 100 µM and the TGI [6] was greater than 100 µM. The TGI [7] was greater than 100 µM, the TGI [14] was greater than 100 µM and the TGI [8] was greater than 100 µM. The TGI [9] was greater than 100 µM, the TGI [10] was greater than 100 µM and the TGI [11] was greater than 100 µM. For the same compound, the TGI [12] was greater than 100 µM and the TGI [13] was greater than 100 µM.
For `COC1C(OC(C)=O)CC(=O)OC(C)C/C=C/C=C\C(O)C(C)CC(CC=O)C1OC1OC(C)C(OC2CC(C)(O)C(OC(=O)CC(C)C)C(C)O2)C(N(C)C)C1O` (configuration not stated), the GI50 [1] was 36.2 µM and > 100 µM, the TGI [1] was greater than 100 µM and the TGI [2] was greater than 100 µM. It also gave a TGI [3] greater than 100 µM, a TGI [4] greater than 100 µM and a TGI [5] greater than 100 µM. It also gave a TGI [6] greater than 100 µM, a TGI [7] greater than 100 µM and a TGI [14] greater than 100 µM. For the same compound, the TGI [8] was greater than 100 µM, the TGI [9] was greater than 100 µM and the TGI [10] was greater than 100 µM. For the same compound, the TGI [11] was greater than 100 µM, the GI50 [12] was 37.9 µM and 85.3 µM and the TGI [12] was greater than 100 µM. The TGI [13] was greater than 100 µM.
With `C#CCOC(=O)[C@@H](C)c1ccc2cc(OC)ccc2c1` the TGI [1] was 35.8 µM, the TGI [3] was greater than 100 µM and the TGI [4] was greater than 100 µM. For the same compound, the TGI [5] was greater than 100 µM, the TGI [6] was greater than 100 µM and the TGI [7] was greater than 100 µM. For the same compound, the TGI [14] was greater than 100 µM, the TGI [8] was greater than 100 µM and the TGI [9] was greater than 100 µM. For the same compound, the TGI [10] was greater than 100 µM, the TGI [11] was greater than 100 µM and the TGI [12] was greater than 100 µM. The TGI [13] was greater than 100 µM.
In the case of `COC(=O)C1(Cc2ccc(C)cc2)Cc2c(C)cccc2C1=O` (configuration not stated), the TGI [1] is reported as 25 µM, the TGI [2] is reported as greater than 100 µM and the TGI [3] is reported as 91.3 µM. For the same compound, the TGI [4] was greater than 100 µM, the TGI [5] was 90.3 µM and the TGI [6] was 86.2 µM. It also gave a TGI [7] of 28.4 µM, a TGI [14] greater than 100 µM and a TGI [8] of 66.5 µM. The TGI [9] was greater than 100 µM, the TGI [10] was 43.9 µM and the TGI [11] was 34.5 µM. The TGI [12] was 39.5 µM and the TGI [13] was greater than 100 µM.
Work on `COc1ccc(-c2nc(SC)n(C3OC(COC(C)=O)C(OC(C)=O)C(OC(C)=O)C3OC(C)=O)c(=O)c2C#N)cc1` (configuration not stated) yielded a TGI [1] greater than 100 µM, a TGI [2] greater than 100 µM and a TGI [3] greater than 100 µM. For the same compound, the TGI [4] was greater than 100 µM, the GI50 [5] was 26.3 µM and > 100 µM and the TGI [5] was greater than 100 µM. The TGI [6] was greater than 100 µM, the TGI [7] was greater than 100 µM and the TGI [14] was greater than 100 µM. For the same compound, the TGI [8] was greater than 100 µM, the GI50 [9] was greater than 100 µM and the TGI [9] was greater than 100 µM. The GI50 [10] was 14.1 µM and 39.2 µM, the TGI [10] was 52.9 µM and > 100 µM and the GI50 [11] was 31.3 µM and > 100 µM. The TGI [11] was 81.9 µM and > 100 µM, the TGI [12] was greater than 100 µM and the TGI [13] was greater than 100 µM.
Work on `COc1ccc2[nH]c3c(C)c4ncccc4c(C)c3c2c1` yielded a TGI [1] of 5.85 µM, a TGI [2] of 3.49 µM and a TGI [3] greater than 10 µM. It also gave a TGI [4] greater than 10 µM, a TGI [5] greater than 10 µM and a TGI [6] greater than 10 µM. For the same compound, the TGI [7] was 4.81 µM, the TGI [14] was greater than 10 µM and the TGI [8] was greater than 10 µM. For the same compound, the TGI [9] was greater than 10 µM, the TGI [10] was greater than 10 µM and the TGI [11] was greater than 10 µM. The TGI [12] was 3.87 µM and the TGI [13] was 4.26 µM.
`ClCCc1ccccc1CC1=NCCc2ccccc21` gave a TGI [1] greater than 100 µM, a TGI [2] greater than 100 µM and a TGI [3] greater than 100 µM. The TGI [4] was 96.2 µM, the TGI [5] was greater than 100 µM and the TGI [6] was greater than 100 µM. It also gave a TGI [7] greater than 100 µM, a TGI [14] greater than 100 µM and a TGI [8] greater than 100 µM. The TGI [9] was greater than 100 µM, the TGI [10] was greater than 100 µM and the TGI [11] was greater than 100 µM. It also gave a TGI [12] greater than 100 µM and a TGI [13] greater than 100 µM.
Work on `C=C(C1=CC(=O)C(C)(C)O1)[C@@H]1CC=C([C@@H]2CC[C@H]3[C@@]2(C)CC[C@H]2C(C)(C)C(=O)[C@H](OC(=O)CC(C)(O)CC(=O)O)C[C@]32C)[C@H](O)O1` (some centres not stated) yielded a TGI [1] of 38.4 µM, a TGI [3] of 35.6 µM and a TGI [4] of 35.8 µM. It also gave a TGI [5] greater than 75 µM, a TGI [6] greater than 75 µM and a TGI [7] of 20.9 µM. It also gave a TGI [14] of 26.3 µM, a TGI [8] of 25.2 µM and a TGI [9] of 26.5 µM. It also gave a TGI [10] of 24.7 µM, a TGI [11] of 24.7 µM and a TGI [12] of 29.7 µM. It also gave a TGI [13] of 25.4 µM.
In the case of `Cc1nn(C(=O)c2ccncc2)c2c1C(c1ccc([N+](=O)[O-])cc1)SC(N)=N2` (configuration not stated), the TGI [1] is reported as greater than 100 µM, the TGI [2] is reported as greater than 100 µM and the TGI [3] is reported as greater than 100 µM. For the same compound, the TGI [4] was greater than 100 µM, the TGI [5] was greater than 100 µM and the TGI [6] was greater than 100 µM. For the same compound, the TGI [7] was greater than 100 µM, the TGI [14] was greater than 100 µM and the TGI [8] was greater than 100 µM. It also gave a TGI [9] greater than 100 µM, a TGI [10] greater than 100 µM and a TGI [11] greater than 100 µM. For the same compound, the TGI [12] was greater than 100 µM and the TGI [13] was greater than 100 µM.
With `CCOC1=NC(C(F)(F)F)(C(F)(F)F)N=C(N2CCCCC2)O1` the TGI [1] was greater than 100 µM, the TGI [2] was greater than 100 µM and the TGI [3] was greater than 100 µM. It also gave a TGI [4] greater than 100 µM, a TGI [5] greater than 100 µM and a TGI [6] greater than 100 µM. For the same compound, the TGI [7] was greater than 100 µM, the TGI [14] was greater than 100 µM and the TGI [8] was greater than 100 µM. For the same compound, the TGI [9] was greater than 100 µM, the TGI [10] was greater than 100 µM and the TGI [11] was greater than 100 µM. The TGI [12] was greater than 100 µM and the TGI [13] was greater than 100 µM.
Compound `CCOC(=O)/C=C(/C(=O)OCC)n1ccc(=O)n(CC(=O)OCC)c1=O` has a GI50 [1] of 0.191 µM, a TGI [1] of 0.483 µM and a TGI [2] of 3.32 µM. The TGI [3] was 7.72 µM, the TGI [4] was 4.41 µM and the TGI [5] was 25.4 µM. It also gave a TGI [6] of 2.52 µM, a TGI [7] of 1.84 µM and a TGI [14] of 3.33 µM. For the same compound, the TGI [8] was 8.03 µM, the TGI [9] was 3.19 µM and the TGI [10] was 1.46 µM. For the same compound, the TGI [11] was 7.88 µM, the TGI [12] was 7.95 µM and the TGI [13] was 0.707 µM.
